From patent US11414425B2 (priority 2018, dated 2022)
Read-outs that look alike come from different tables or passages of the source.

Legend:
α5β3γ2 GABAA receptors = α5β3γ2 GABAA receptors (Homo sapiens, UniProt P18507+P31644); experiment: [3H]Ro15-1788 binding, membranes of Ltk cells stably expressing α5β3γ2 GABAA receptors
GABAA receptors (α5β2γ2) = biological target: T1, GABAA receptors (α5β2γ2) (Homo sapiens, UniProt P18507+P31644); experiment: Positive allosteric modulator activity: potentiation of EC20 GABA current in oocytes; format: cell-based; settings: read-out: GABA α5 Functional Data (potentiation of EC20 GABA); @ 100 nM; ranges
T1 construct: expressed in transfected cells
T1 sequence (P31644 32-462): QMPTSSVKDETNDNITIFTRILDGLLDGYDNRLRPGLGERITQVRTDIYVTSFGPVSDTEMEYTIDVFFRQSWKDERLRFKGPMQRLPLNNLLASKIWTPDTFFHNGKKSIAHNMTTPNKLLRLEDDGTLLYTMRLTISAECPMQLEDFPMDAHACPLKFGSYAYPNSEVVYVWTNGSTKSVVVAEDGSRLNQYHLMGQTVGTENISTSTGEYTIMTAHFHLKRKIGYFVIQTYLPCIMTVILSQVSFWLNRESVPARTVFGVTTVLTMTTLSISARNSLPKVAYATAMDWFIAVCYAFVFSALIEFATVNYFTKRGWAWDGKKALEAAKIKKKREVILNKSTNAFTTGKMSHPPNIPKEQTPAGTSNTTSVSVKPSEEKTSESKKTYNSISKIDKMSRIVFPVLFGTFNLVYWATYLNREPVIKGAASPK
T1 sequence (P47870 25-512, further chain): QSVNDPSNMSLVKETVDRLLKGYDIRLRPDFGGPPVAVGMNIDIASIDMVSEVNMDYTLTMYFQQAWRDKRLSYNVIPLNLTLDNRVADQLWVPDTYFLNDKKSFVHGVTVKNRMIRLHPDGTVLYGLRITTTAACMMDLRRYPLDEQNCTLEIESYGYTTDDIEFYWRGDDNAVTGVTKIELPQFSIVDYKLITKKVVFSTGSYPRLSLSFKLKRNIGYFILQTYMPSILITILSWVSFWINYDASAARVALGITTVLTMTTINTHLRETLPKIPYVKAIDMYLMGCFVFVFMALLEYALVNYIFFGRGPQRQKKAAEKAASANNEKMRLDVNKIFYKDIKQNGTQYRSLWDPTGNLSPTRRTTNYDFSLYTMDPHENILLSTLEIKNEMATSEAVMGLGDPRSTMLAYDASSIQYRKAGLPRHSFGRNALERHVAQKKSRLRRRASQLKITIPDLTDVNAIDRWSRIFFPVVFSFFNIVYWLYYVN
T1 sequence (P18507 40-475): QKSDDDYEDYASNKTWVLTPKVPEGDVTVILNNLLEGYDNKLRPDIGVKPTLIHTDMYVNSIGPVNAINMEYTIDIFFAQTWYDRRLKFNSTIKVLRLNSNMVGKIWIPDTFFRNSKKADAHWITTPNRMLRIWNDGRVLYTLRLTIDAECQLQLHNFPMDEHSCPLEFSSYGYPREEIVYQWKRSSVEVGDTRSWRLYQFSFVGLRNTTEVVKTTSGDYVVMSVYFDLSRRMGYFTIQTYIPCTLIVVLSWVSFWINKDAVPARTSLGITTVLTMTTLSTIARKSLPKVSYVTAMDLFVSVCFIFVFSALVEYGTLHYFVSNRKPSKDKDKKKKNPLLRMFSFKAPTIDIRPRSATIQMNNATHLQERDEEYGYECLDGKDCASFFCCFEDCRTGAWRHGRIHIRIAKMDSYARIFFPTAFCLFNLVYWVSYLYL
Experimental: On day 1, 1 ng/32 nL of GABAA α5β2γ2 cDNA was injected into one oocyte. Test starts on day 2. The cDNA injected to the oocytes was a mix of alpha, beta and gamma, their ratio is 1:1:10 (by weight) and the total weight of the mixed 3 subunits to be injected in one oocyte was 1 ng in 32 nl volume. The injected oocytes can also be tested on day 3. In such case, the cDNA amount injected to the oocytes should be reduced by 20%.
1). 8 oocytes were placed in 8 chambers of OpusXpress and superfused with Modified Barth's Saline (MBS) at 3 mL/min. Glass electrodes back-filled with 3M KCl (0.5-3 megaohms) were used.
1). New oocytes were used to run new test.
3). […] Oocytes were washed with MBS for 5-10 min.
4). […] Itest was divided by IGABA to obtain potentiation (%).
Test Compounds at Multiple Doses • 1). Repeat the above steps 1), 2) and 3) in the control test. • 2). […] Divide Itest by IGABA to obtain potentiation (%). • 3). Discard all tested oocytes, new oocytes were used and the above steps 1) and 2) were repeated to test second concentration of the same compound. Each oocyte was used for only one concentration test for a single test compound. The steps were repeated for other test compounds.

[1] = ranges, inhibition of [3H]Ro15-1788 binding

Chain of α5β3γ2 GABAA receptors (P31644 32-462): as the sequence (P31644 32-462) above
Chain of α5β3γ2 GABAA receptors (P28472 26-473 partner): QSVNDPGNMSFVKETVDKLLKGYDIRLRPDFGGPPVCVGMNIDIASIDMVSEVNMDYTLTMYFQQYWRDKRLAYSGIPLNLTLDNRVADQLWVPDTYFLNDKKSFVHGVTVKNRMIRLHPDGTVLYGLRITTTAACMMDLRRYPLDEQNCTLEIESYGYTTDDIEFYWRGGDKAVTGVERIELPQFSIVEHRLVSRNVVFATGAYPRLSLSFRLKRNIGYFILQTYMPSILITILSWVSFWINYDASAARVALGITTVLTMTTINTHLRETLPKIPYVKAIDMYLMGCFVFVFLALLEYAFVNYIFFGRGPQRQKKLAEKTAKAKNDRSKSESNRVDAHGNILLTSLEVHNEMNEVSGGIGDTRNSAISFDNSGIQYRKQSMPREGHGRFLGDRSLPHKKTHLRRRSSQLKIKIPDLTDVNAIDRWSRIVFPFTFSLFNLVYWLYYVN
Chain of α5β3γ2 GABAA receptors (P18507 40-475): as the sequence (P18507 40-475) above

SMILES	Ki (α5β3γ2 GABAA receptors; [1])	activation at 0.1 µM (GABAA receptors (α5β2γ2))	Ki (α5β3γ2 GABAA receptors)
CCOC(=O)c1ncn2c1Cc1c(Cc3cccnc3)nnn1-c1cc(C)ccc1-2 [Compound 111]	< 100 nM	20 to 50%	–
COCc1nnc2n1Cc1c(C3=NC(C)CO3)ncn1-c1ccc(Cl)cc1-2 (centres unmarked) [Compound 243]	< 100 nM	20 to 50%	–
COc1ccc2c(c1)-n1nncc1Cc1c(C3=N[C@H](c4ccccc4)CO3)ncn1-2 [Compound 290]	< 100 nM	20 to 50%	–
C#Cc1ccc2c(c1)-c1nnc(COC)n1Cc1c(C3=N[C@@H](c4ccccc4)CO3)ncn1-2 [Compound 301]	< 100 nM	5 to 20%	–
Clc1ccc2c(c1)-c1nnc(COCc3ccccc3)n1Cc1c(-c3ncco3)ncn1-2 [Compound 350]	–	> 50%	–
C#Cc1ncn2c1Cn1c(COc3ccccc3F)nnc1-c1cc(Cl)ccc1-2 [Compound 353, 15-chloro-5-ethynyl-9-(2-fluorophenoxymethyl)-2,4,8,10,11-pentaazatetracyclo[11.4.0.0^2,6.0^8,12]heptadeca-1(17),3,5,9,11,13,15-heptaene]	–	> 50%	–
C#Cc1ncn2c1Cc1cnnn1-c1cc(Cl)ccc1-2 [Compound 356]	–	> 50%	–
COc1ccc2c(c1)-n1nncc1Cc1c(C3=N[C@@H](c4ccc(F)cc4)CO3)ncn1-2 [Compound 367]	< 100 nM	5 to 20%	–
COc1ccc2c(c1)-n1nncc1Cc1c(C#CCc3cccc(Cl)c3)ncn1-2 [Compound 417]	–	5 to 20%	–
COc1ccc2c(c1)-n1nncc1Cc1c(C#CCc3cccc(F)c3)ncn1-2 [Compound 419]	–	20 to 50%	–
COc1ccc2c(c1)-n1nncc1Cc1c(C#CCc3ccccc3OC(F)(F)F)ncn1-2 [Compound 420]	–	5 to 20%	–
COCc1nnc2n1Cc1c(C#CCc3cccc(F)c3)ncn1-c1ccc(Cl)cc1-2 [Compound 421]	–	20 to 50%	–
COCc1nnc2n1Cc1c(C#CCc3cccc(Cl)c3)ncn1-c1ccc(Cl)cc1-2 [Compound 422]	–	20 to 50%	–
COCc1nnc2n1Cc1c(C#CCc3cccc(OC(F)(F)F)c3)ncn1-c1ccc(Cl)cc1-2 [Compound 423]	–	5 to 20%	–
CC(C)C#Cc1ccc2c(c1)-n1nncc1Cc1c(Br)ncn1-2 [Compound 454]	–	5 to 20%	–
Cc1noc(-c2ncn3c2Cc2cnnn2-c2cc(Br)ccc2-3)n1 [Compound 473]	< 100 nM	5 to 20%	–
Cc1noc(-c2ncn3c2Cc2cnnn2-c2cc(-c4ccccc4)ccc2-3)n1 [Compound 474]	< 100 nM	5 to 20%	–
FC(F)(F)c1ccc2c(c1)-n1nncc1Cc1c(-c3ncco3)ncn1-2 [Compound 475]	< 100 nM	5 to 20%	–
FC(F)(F)Oc1ccc2c(c1)-n1nncc1Cc1c(-c3ncco3)ncn1-2 [Compound 476]	< 100 nM	5 to 20%	–
CC(C)c1noc(-c2ncn3c2Cc2c(Cc4cccc(F)c4)nnn2-c2cc(Cl)ccc2-3)n1 [Compound 481]	< 100 nM	5 to 20%	–
Cc1noc(-c2ncn3c2Cc2c(Cc4cccc(F)c4)nnn2-c2cc(C(F)(F)F)ccc2-3)n1 [Compound 482]	< 100 nM	20 to 50%	–
Cc1noc(-c2ncn3c2Cc2c(Cc4cccc(F)c4)nnn2-c2cc(OC(F)(F)F)ccc2-3)n1 [Compound 485]	< 100 nM	5 to 20%	–

SMILES	Ki (α5β3γ2 GABAA receptors; [1])	activation at 0.1 µM (GABAA receptors (α5β2γ2))	Ki (α5β3γ2 GABAA receptors)
Cc1noc(-c2ncn3c2Cc2c(Cc4cccc(F)c4)nnn2-c2cc(OC(F)F)ccc2-3)n1 [Compound 491]	< 100 nM	20 to 50%	–
Cc1noc(-c2ncn3c2Cc2c(Cc4ccc(F)cc4)nnn2-c2cc(OC(F)F)ccc2-3)n1 [Compound 492]	< 100 nM	20 to 50%	–
Cc1nc(-c2ncn3c2Cc2c(Cc4ccc(F)cc4)nnn2-c2cc(C(F)(F)F)ccc2-3)no1 [Compound 493]	< 100 nM	5 to 20%	–
CC(C)c1noc(-c2ncn3c2Cc2c(Cc4ccc(F)cc4)nnn2-c2cc(OC(F)F)ccc2-3)n1 [Compound 494]	< 100 nM	20 to 50%	–
COc1ccc(C#Cc2ncn3c2Cc2cnnn2-c2cc(OC(F)F)ccc2-3)cc1 [Compound 498]	< 100 nM	5 to 20%	–
COc1ccc(C#Cc2ncn3c2Cc2cnnn2-c2cc(C(F)(F)F)ccc2-3)cc1 [Compound 499]	< 100 nM	20 to 50%	–
Fc1ccc(C#Cc2ncn3c2Cc2cnnn2-c2cc(OC(F)F)ccc2-3)cc1 [Compound 500]	< 100 nM	5 to 20%	–
Fc1ccc(C#Cc2ncn3c2Cc2cnnn2-c2cc(C(F)(F)F)ccc2-3)cc1 [Compound 501]	< 100 nM	20 to 50%	–
FC(F)(F)c1ccc2c(c1)-n1nncc1Cc1c(C#CC3(c4ccccc4)CC3)ncn1-2 [Compound 503]	< 100 nM	5 to 20%	–
FC(F)Oc1ccc2c(c1)-n1nncc1Cc1c(C#CC3(c4ccccc4)CC3)ncn1-2 [Compound 504]	< 100 nM	5 to 20%	–
Brc1ccc2c(c1)-n1nncc1Cc1c(C3=N[C@H](c4ccccc4)CO3)ncn1-2 [Compound 505]	< 100 nM	20 to 50%	–
FC(F)(F)Oc1ccc2c(c1)-n1nncc1Cc1c(C3=N[C@H](c4ccccc4)CO3)ncn1-2 [Compound 507]	< 100 nM	5 to 20%	–
CC1(C)OC(c2ncn3c2Cc2cnnn2-c2cc(OC(F)F)ccc2-3)=N[C@H]1c1ccccc1 [Compound 626]	100 to 1000 nM	–	–
Clc1ccc2c(c1)-n1nncc1Cc1c(C3=NCC(c4ccncc4)O3)ncn1-2 (centres unmarked) [Compound 629]	< 100 nM	–	–
COCc1nnn2c1Cc1c(C3=NC[C@@H](c4ccc(Cl)cc4)O3)ncn1-c1ccc(Cl)cc1-2 [Compound 634]	< 100 nM	–	–
COCc1nnn2c1Cc1c(C#Cc3ccnn3C)ncn1-c1ccc(Cl)cc1-2 [Compound 642]	< 100 nM	–	–
COCc1nnn2c1Cc1c(C#Cc3ccn(C)n3)ncn1-c1ccc(Cl)cc1-2 [Compound 643]	< 100 nM	–	–
COCc1nnn2c1Cc1c(C#Cc3cnc(OC)s3)ncn1-c1ccc(OC)cc1-2 [Compound 647]	–	–	< 100 nM
COCc1nnc2n1Cc1c(C#Cc3c[nH]nc3OC)ncn1-c1ccc(OC)cc1-2 [Compound 657]	< 100 nM	–	–
Clc1ccc2c(c1)-n1nncc1Cc1c(C#Cc3cnc4occc4c3)ncn1-2 [Compound 658]	–	–	< 100 nM
Cc1ncc(C#Cc2ncn3c2Cc2cnnn2-c2cc(Cl)ccc2-3)[nH]1 [Compound 659]	–	–	< 100 nM
Cn1nccc1C#Cc1ncn2c1Cc1cnnn1-c1cc(Cl)ccc1-2 [Compound 660]	< 100 nM	–	–

SMILES	Ki (α5β3γ2 GABAA receptors; [1])	activation at 0.1 µM (GABAA receptors (α5β2γ2))	Ki (α5β3γ2 GABAA receptors)
Cn1ccc(C#Cc2ncn3c2Cc2cnnn2-c2cc(Cl)ccc2-3)n1 [Compound 661]	–	–	< 100 nM
COc1n[nH]cc1C#Cc1ncn2c1Cc1cnnn1-c1cc(Cl)ccc1-2 [Compound 662]	–	–	< 100 nM
COCc1nnc2n1Cc1c(C#Cc3c[nH]nc3OC)ncn1-c1ccc(Cl)cc1-2 [Compound 664]	< 100 nM	–	–
COCc1nnc2n1Cc1c(C#Cc3ccc(SC)nc3)ncn1-c1ccc(OC)cc1-2 [Compound 665]	100 to 1000 nM	–	–
COCc1nnc2n1Cc1c(C#Cc3ccc4nccn4c3)ncn1-c1ccc(OC)cc1-2 [Compound 684]	100 to 1000 nM	–	–
COCc1nnc2n1Cc1c(C#Cc3cnc(C)[nH]3)ncn1-c1ccc(OC)cc1-2 [Compound 685]	–	> 50%	–
COCc1nnc2n1Cc1c(C#Cc3ccnn3C)ncn1-c1ccc(OC)cc1-2 [Compound 686]	–	> 50%	–
COCc1nnc2n1Cc1c(C#Cc3ccn(C)n3)ncn1-c1ccc(OC)cc1-2 [Compound 687]	–	> 50%	–
COc1ccc2c(c1)-n1nncc1Cc1c(C3=NC[C@@H](c4cccc(F)c4)O3)ncn1-2 [Compound 692]	–	–	< 100 nM
COc1ccc2c(c1)-n1nncc1Cc1c(C#Cc3ccc(OC(F)F)nc3)ncn1-2 [Compound 693]	–	–	< 100 nM
COc1ccc2c(c1)-n1nncc1Cc1c(C#Cc3ccc(OC)nn3)ncn1-2 [Compound 694]	< 100 nM	–	–
CC(C)Oc1ccc(C#Cc2ncn3c2Cc2cnnn2-c2cc(Cl)ccc2-3)cn1 [Compound 697]	–	–	< 100 nM
COCc1nnc2n1Cc1c(C#Cc3ccc(OCC4CC4)nc3)ncn1-c1ccc(Cl)cc1-2 [Compound 700]	< 100 nM	–	–
Clc1ccc2c(c1)-n1nncc1Cc1c(C#Cc3ccc(-n4cccc4)cc3)ncn1-2 [Compound 702]	< 100 nM	–	–
COCc1nnc2n1Cc1c(C#Cc3ccc(OC(C)C)nc3)ncn1-c1ccc(Cl)cc1-2 [Compound 708]	< 100 nM	–	–
CCOc1ccc(C#Cc2ncn3c2Cn2c(COC)nnc2-c2cc(Cl)ccc2-3)cn1 [Compound 709]	100 to 1000 nM	–	–
COCc1nnc2n1Cc1c(C#Cc3ccc(-n4cccc4)cc3)ncn1-c1ccc(OC)cc1-2 [Compound 713]	< 100 nM	–	–
COCc1nnc2n1Cc1c(C#Cc3ccc4ncccc4c3)ncn1-c1ccc(OC)cc1-2 [Compound 714]	< 100 nM	–	–
Clc1ccc([C@@H]2CN=C(c3ncn4c3Cc3cnnn3-c3cc(Cl)ccc3-4)O2)cc1 [Compound 719]	< 100 nM	–	–
Clc1ccc([C@H]2CN=C(c3ncn4c3Cc3cnnn3-c3cc(Cl)ccc3-4)O2)cc1 [Compound 720]	< 100 nM	–	–
COCc1nnc2n1Cc1c(C#CC(C)(C)C)ncn1-c1ccc(Cl)cc1-2 [Compound 721]	< 100 nM	–	–
